# Laboratory results taken from patent US20250171434A1, “SEC61 INHIBITORS AND USE THEREOF” (KEZAR LIFE SCIENCES, INC., priority 2022, published 2025).
# Tests used:
# [1] = tested on: IL-2-FL/Gaussia Luciferase; assay: Dox Inducible IL2-FL-Gluc Assay; assay type: cell-based; details: Table 1; for IC50: Flp-In 293 T-REx cells, 24 hours with doxycycline, read-out: 24 hr Dox Inducible IL2FLGluc 293FRT/TO: Mean IC50; for 24 hr Dox Inducible IL2FLGluc 293FRT/TO: IL2/PD1: ratio of IC50s IL2/PD1
# Outline: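 Stable Flp-In 293 T-REx line, Tet-regulated IL-2 (aa 1-153)–Gaussia luciferase fusion; hygromycin/blasticidin selected. Plated day -1; compound + doxycycline added next day; 37° C, 5% CO2.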
# [2] = tested on: PD1-ss+10aa/Gaussia Luciferase; assay: Dox-Induced PD1-ss-Gluc Assay; assay type: cell-based; details: Flp-In 293 T-REx cells, 24 hours with doxycycline; Table 1; read-out: 24 hr Dox Inducible PD1ssGluc 293FRT/TO: Mean IC50
# Outline: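 The cell line was made by transfecting Flp-In 293 T-REx cells with a PD1 signal sequence+10aa–Gaussia luciferase fusion under T-REx control and selecting with hygromycin and blasticidin. Cells were seeded, and next day compound plus doxycycline was added at 37 °C, 5% CO2.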
# [3] = Liver Microsome Stability Assay, mouse; assay type: in vitro ADME; details: mouse liver microsomes 1.0 mg/mL, 1.0 uM compound, 37° C., 1 mM NADPH
# Outline: (§1)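 Stability was judged from samples quenched at 0 and 30 minutes after incubating 1.0 uM compound with 1.0 mg/mL liver microsomes at 37° C, plus or minus 1 mM NADPH, in 0.1 M potassium phosphate containing 0.4% DMSO.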
# [4] = tested on: multiple myeloma cell line NCI-H929; assay: H929 Cell Viability Assay; assay type: cell-based, human; details: Homo sapiens; NCI-H929 cells, 48 hours, Celltiter-Glo; read-out: 48 hr H929 Viability Celltiter-Glo: Mean EC50
# Outline: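 Cells in RPMI 1640/10% FBS; compound dilutions in DMSO/media; 48 h, 37° C, 5% CO2; CellTiter-Glo luciferase readout for viability.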
# [5] = tested on: IL6R-ss+10aa/Gaussia Luciferase; assay: Dox-induced IL-6R-ss-Gluc Assay; assay type: cell-based; details: Table 1; for IC50: Flp-In 293 T-REx cells, 24 hours with doxycycline, read-out: 24hr Dox Inducible IL6R(ss + 10)Gluc 293FRT/TO: Mean IC50; for 24hr Dox Inducible IL6R(ss + 10)Gluc 293FRT/TO: IL6R/PD1: ratio of IC50s IL6R/PD1
# Outline: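 Flp-In 293 T-REx cells stably carrying a doxycycline-inducible IL6R signal sequence+10 aa fused to Gaussia luciferase. Cells plated the day before; compound dilutions added in DMSO/media containing doxycycline and incubated at 37 °C, 5% CO2.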
# [6] = Liver Microsome Stability Assay, human; assay type: in vitro ADME; details: human liver microsomes 1.0 mg/mL, 1.0 uM compound, 37° C., 1 mM NADPH
# Outline: as §1
# [7] = tested on: multiple myeloma cell line U266B1; assay: U266 Cell Viability Assay; assay type: cell-based; details: Homo sapiens, U-266; U266B1 cells, 48 hours, Celltiter-Glo; read-out: 48 hr U266 Viability Celltiter-Glo: Mean EC50
# Outline: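 Luminescent ATP read-out (CellTiter-Glo) after 48 h compound exposure at 37° C., 5% CO2; cells maintained in RPMI 1640/10% FBS/2 mM glutamine/pen-strep, compounds diluted in DMSO/media.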
# CD47(ss + 10)Gluc = assay: Dox-Induced CD47-ss-Gluc Assay; assay type: cell-based; details: Flp-In 293 T-REx cells, 24 hours with doxycycline; Table 1; read-out: 24 hr Dox Inducible CD47(ss + 10)Gluc 293FRT/TO: Mean IC50
# [8] = Liver Microsome Stability Assay, rat; assay type: in vitro ADME; details: rat liver microsomes 1.0 mg/mL, 1.0 uM compound, 37° C., 1 mM NADPH
# Outline: as §1
# [9] = Liver Microsome Stability Assay, monkey; assay type: in vitro ADME; details: monkey liver microsomes 1.0 mg/mL, 1.0 uM compound, 37° C., 1 mM NADPH
# Outline: as §1
Structure (SMILES),IC50 [1] [µM],IC50 [2] [µM],Liver Microsome Stability (Multiple Species): Mouse - % Remaining after 30 min w/ NADPH (%) [3] [%],EC50 [4] [µM],IC50 [5] [µM],Liver Microsome Stability (Multiple Species): Human - % Remaining after 30 min w/ NADPH (%) [6] [%],EC50 [7] [µM],IC50 (CD47(ss + 10)Gluc) [µM],Liver Microsome Stability (Multiple Species): Rat - % Remaining after 30 min w/ NADPH (%) [8] [%],Liver Microsome Stability (Multiple Species): Monkey - % Remaining after 30 min w/ NADPH (%) [9] [%],24 hr Dox Inducible IL2FLGluc 293FRT/TO: IL2/PD1 [1],24hr Dox Inducible IL6R(ss + 10)Gluc 293FRT/TO: IL6R/PD1 [5]
"[2H]C([2H])(c1ccnc(F)c1)n1cc(OC(F)F)cc1C(=O)Nc1nc(/C=C/c2ncn(C3CC3)c2Cl)cs1 [Compound A16, (E)-N-(4-(2-(5-chloro-1-cyclopropyl-1H-imidazol-4-yl)vinyl)thiazol-2-yl)-4-(difluoromethoxy)-1-((2-fluoropyridin-4-yl)methyl-d2)-1H-pyrrole-2-carboxamide]",2.91,0.006,81,> 25,2.15,83,> 25,2.8,56,58,460,339
"COc1cc(C(=O)Nc2nc(/C=C/c3ncn(C4CC4)c3Cl)cs2)n(Cc2ccnc(F)c2)c1 [Compound A13, (E)-N-(4-(2-(5-chloro-1-cyclopropyl-1H-imidazol-4-yl)vinyl)thiazol-2-yl)-1-((2-fluoropyridin-4-yl)methyl)-4-methoxy-1H-pyrrole-2-carboxamide]",2.31,0.005,16,> 25,2.56,48,> 25,2.03,62,9,440,489
"O=C(Nc1nc(/C=C/c2ncn(C3CC3)c2Cl)cs1)c1cc(OCF)cn1Cc1ccnc(F)c1 [Compound A19, (E)-N-(4-(2-(5-chloro-1-cyclopropyl-1H-imidazol-4-yl)vinyl)thiazol-2-yl)-4-(fluoromethoxy)-1-((2-fluoropyridin-4-yl)methyl)-1H-pyrrole-2-carboxamide]",3.66,0.01,65,> 25,2.91,4,> 25,4.35,23,51,360,287
"COc1cc(C(=O)Nc2nc(/C=C/c3ncn(C(C)C)c3Cl)cs2)n(Cc2ccnc(F)c2)c1 [Compound A2, (E)-N-(4-(2-(5-chloro-1-isopropyl-1H-imidazol-4-yl)vinyl)thiazol-2-yl)-1-((2-fluoropyridin-4-yl)methyl)-4-methoxy-1H-pyrrole-2-carboxamide]",4.17,0.024,68,> 25,3.27,15,> 25,3.81,72,35,170,133
"[2H]C([2H])([2H])Oc1cc(C(=O)Nc2nc(/C=C/c3ncn(C4CC4)c3Cl)cs2)n(Cc2ccnc(F)c2F)c1 [Compound A22, (E)-N-(4-(2-(5-chloro-1-cyclopropyl-1H-imidazol-4-yl)vinyl)thiazol-2-yl)-1-((2,3-difluoropyridin-4-yl)methyl)-4-(methoxy-d3)-1H-pyrrole-2-carboxamide]",> 25,0.034,69,> 25,> 25,16,> 25,5.53,33,9,>740,>741
"Cc1c(Cn2cc(OC(F)F)cc2C(=O)Nc2nc(/C=C/c3ncn(C4CC4)c3Cl)cs2)ccnc1F [Compound A23, (E)-N-(4-(2-(5-chloro-1-cyclopropyl-1H-imidazol-4-yl)vinyl)thiazol-2-yl)-4-(difluoromethoxy)-1-((2-fluoro-3-methylpyridin-4-yl)methyl)-1H-pyrrole-2-carboxamide]",> 25,0.037,55,> 25,> 25,20,> 25,> 25,31,8,>540,>680

# Second part, led by results:
IC50 [1] [µM],IC50 [2] [µM],Liver Microsome Stability (Multiple Species): Mouse - % Remaining after 30 min w/ NADPH (%) [3] [%],EC50 [4] [µM],IC50 [5] [µM],Liver Microsome Stability (Multiple Species): Human - % Remaining after 30 min w/ NADPH (%) [6] [%],EC50 [7] [µM],IC50 (CD47(ss + 10)Gluc) [µM],Liver Microsome Stability (Multiple Species): Rat - % Remaining after 30 min w/ NADPH (%) [8] [%],Liver Microsome Stability (Multiple Species): Monkey - % Remaining after 30 min w/ NADPH (%) [9] [%],Structure (SMILES),24 hr Dox Inducible IL2FLGluc 293FRT/TO: IL2/PD1 [1],24hr Dox Inducible IL6R(ss + 10)Gluc 293FRT/TO: IL6R/PD1 [5]
14.1,18.7,54,24.7,> 25,1,> 25,> 25,32,3,"CN[C@H]1CC[C@@H](/C=C/c2csc(NC(=O)c3cccn3Cc3ccncc3)n2)CC1 [Compound B11, N-(4-((E)-2-((1s,4s)-4-(methylamino)cyclohexyl)vinyl)thiazol-2-yl)-1-(pyridin-4-ylmethyl)-1H-pyrrole-2-carboxamide]",0.8,>1.3
1.04,0.144,40,> 25,0.892,27,> 25,1.03,3,8,"O=C(Nc1nc(/C=C/c2ccc3occc3c2)cs1)c1cccn1Cc1ccnc(F)c1 [Compound B27, (E)-N-(4-(2-(benzofuran-5-yl)vinyl)thiazol-2-yl)-1-((2-fluoropyridin-4-yl)methyl)-1H-pyrrole-2-carboxamide]",5.2,6
> 25,0.877,70,> 25,> 25,29,> 25,> 25,40,16,"Cc1cnc(F)c(C)c1Cn1cc(OC(F)F)cc1C(=O)Nc1nc(/C=C/c2ncn(C3CC3)c2Cl)cs1 [Compound A26, (E)-N-(4-(2-(5-chloro-1-cyclopropyl-1H-imidazol-4-yl)vinyl)thiazol-2-yl)-4-(difluoromethoxy)-1-((2-fluoro-3,5-dimethylpyridin-4-yl)methyl)-1H-pyrrole-2-carboxamide]",>22,28
